Test results taken from patent US20060263802A1 (priority 2003, published 2006).

Experiments:
Format in all cases: binding
[1] = tested on: human monoclonal antibody CRJA
[2] = tested on: human monoclonal antibody CRJA; remark: listed apart in the source
[3] = tested on: human monoclonal antibody CR57
[4] = tested on: human monoclonal antibody CR57; remark: listed apart in the source
[5] = tested on: human monoclonal antibody CRJB
[6] = tested on: human monoclonal antibody CRJB; remark: listed apart in the source

Sequence | Binding of CRJA to linear peptide (PEPSCAN-ELISA signal) [1] | Binding of CRJA (10 μg/ml) to looped/cyclic peptide (PEPSCAN-ELISA signal) [2] | Binding of CR57 to linear peptide (PEPSCAN-ELISA signal) [3] | Binding of CR57 (10 μg/ml) to looped/cyclic peptide (PEPSCAN-ELISA signal) [4] | Binding of CRJB to linear peptide (PEPSCAN-ELISA signal) [5] | Binding of CRJB (10 μg/ml) to looped/cyclic peptide (PEPSCAN-ELISA signal) [6] | Binding of CRJA (10 μg/ml) to looped/cyclic peptide (PEPSCAN-ELISA) [2] | Binding of CR57 (10 μg/ml) to looped/cyclic peptide (PEPSCAN-ELISA) [4] | Binding of CRJB (10 μg/ml) to looped/cyclic peptide (PEPSCAN-ELISA) [6] | Binding of human monoclonal antibody CRJA to linear peptide (PEPSCAN-ELISA signal) [1] | Binding of CRJA to looped/cyclic peptide (PEPSCAN-ELISA signal) [2] | Binding of human monoclonal antibody CR57 to linear peptide (PEPSCAN-ELISA signal) [3] | Binding of CR57 to looped/cyclic peptide (PEPSCAN-ELISA signal) [4] | Binding of human monoclonal antibody CRJB to linear peptide (PEPSCAN-ELISA signal) [5] | Binding of CRJB to looped/cyclic peptide (PEPSCAN-ELISA signal) [6]
DIFTNSRGKRASKGS | 114 | 99 | 70 | 80 | 107 | 82 | – | – | – | – | – | – | – | – | –
HMELLESSVIPLVHP | 114 | – | 110 | – | 129 | – | 106 | 118 | 104 | – | – | – | – | – | –
LRKLVPGFGKAYTIF | 116 | – | 83 | – | 118 | – | 87 | 92 | 105 | – | – | – | – | – | –
HFRPTPDACRAAYNW | 93 | 62 | 46 | 65 | 113 | 71 | – | – | – | – | – | – | – | – | –
EECLDALESIMTTKS | 98 | – | 82 | – | 120 | – | 105 | 105 | 70 | – | – | – | – | – | –
RKLVPGFGKAYTIFN | 48 | – | 47 | – | 115 | – | 44 | 52 | 79 | – | – | – | – | – | –
MEADAHYKSVRTWNE | 78 | – | 62 | – | 129 | – | 68 | 69 | 86 | – | – | – | – | – | –
DEIEHLVVEELVRKR | 90 | – | 94 | – | 123 | – | 106 | 113 | 106 | – | – | – | – | – | –
EAEDFVEVHLPDVHN | – | – | – | – | – | – | – | – | – | 97 | 105 | 76 | 98 | 117 | 93
CTNLSGFSYMELKVG | 84 | 79 | 47 | 70 | 110 | 96 | – | – | – | – | – | – | – | – | –
PPDQLVNLHDFRSDE | 118 | – | 107 | – | 120 | – | 97 | 101 | 83 | – | – | – | – | – | –
LGPDGNVLIPEMQSS | 99 | – | 100 | – | 134 | – | 104 | 150 | 94 | – | – | – | – | – | –
